# Experimental data as given in US20120251511A1, “COMPOSITION AND PRODUCTS FOR ENABLING THE PRODUCTION OF EQUOL IN VIVO” (priority 2011, published 2012).
# Key:
# [1] = HPLC/EC determination of daidzein and equol levels in blood serum and urine after the BLDG formula; settings: for concentration at 1 day / concentration at 7 day / concentration at 21 day: human, oral; for concentration at 1 day: Day 1, plasma; for concentration at 7 day: Day 7, plasma
# Description: The subject's diet was limited to 20 grams of saturated fat per day. The subject also consumed a healthy amount of grains, fruits and vegetables.
# Blood serum and urine samples were taken on days 1, 7 and 21 and the samples were sent to an independent laboratory for analysis.
# Equol in the blood serum was tested (untreated) as unbound to sex hormone-binding globulin (SHBG).
# [2] = in vitro; cited from earlier work
# [3] = test system: androgenic alopecia (hair loss); assay: Observed effects on androgenic alopecia (hair loss); assay type: in vivo, human; settings: inulin supplements 4 grams daily, one individual
# Description: The goal of the first experiment, performed in June 2006, was to investigate the ability for the BLDG formula to show both objective and subjective results. Objective results included blood and urine samples testing for the presence of equol. Subjective results included the documentation of observed effects on androgenic alopecia (hair loss) and acne vulgaris.
# The test subject was a person, in good overall health. Subject was physically active, had adequate nutrition and was not taking any drugs or supplements that were known to cause hair loss or acne.
# The subject was experiencing a high degree of shedding of the hair from areas of the scalp consistent with male pattern baldness. Miniaturization of the hair follicles on the scalp was noticeable along the hair line, part line and vertex upon close observation. […] Generally, the subject would have been considered a Class II on the Norwood-Hamilton scale, but with some increased vertex thinning more attributable to a Class III.
# [4] = plasma, unbound equol, Mean, BLDG formula regimen equivalent to Example 1
# [5] = plasma, unbound equol, ng/ml I, BLDG formula regimen equivalent to Example 1
# [6] = plasma, unbound equol, ng/ml II, BLDG formula regimen equivalent to Example 1
# [7] = Day 21, urine, BLDG formula regimen equivalent to Example 1
compound,measurement,setting,value
Oc1ccc([C@H]2COc3cc(O)ccc3C2)cc1 [S-equol],increase in equol concentration between Day 7 and Day 21,"[1]; blood serum, BLDG formula",3%
same,concentration at 1 day,[1]; [4],0 ng/mL
same,concentration at 7 day,[1]; [4],127 ng/mL
same,concentration at 21 day,"[1]; plasma, unbound equol, Mean, Day 21, plasma, BLDG formula regimen equivalent to Example 1",131 ng/mL
same,concentration at 1 day,[1]; [5],0 ng/mL
same,concentration at 7 day,[1]; [5],137 ng/mL
same,concentration at 21 day,"[1]; plasma, unbound equol, ng/ml I, Day 21, plasma, BLDG formula regimen equivalent to Example 1",122 ng/mL
same,concentration at 1 day,[1]; [6],0 ng/mL
same,concentration at 7 day,[1]; [6],117 ng/mL
same,concentration at 21 day,"[1]; plasma, unbound equol, ng/ml II, Day 21, plasma, BLDG formula regimen equivalent to Example 1",141 ng/mL
same,concentration at 21 day,"[1]; urine, equol, Mean, Day 21, urine, BLDG formula regimen equivalent to Example 1",638 ng/mL
same,concentration at 21 day,"[1]; urine, equol, ng/ml I, Day 21, urine, BLDG formula regimen equivalent to Example 1",613 ng/mL
same,concentration at 21 day,"[1]; urine, equol, ng/ml II, Day 21, urine, BLDG formula regimen equivalent to Example 1",662 ng/mL
same,blood levels that may be required to fully mitigate DHT at normal levels of circulation in men,[2],100 ng/mL
"O=c1c(-c2ccc(O)cc2)coc2cc(O)ccc12 [Daidzein, 4,7-Dihydroxyisoflavone]","daidzein, Mean",[1]; [7],43974.11 ng/mL
same,"daidzein, ng/ml I",[1]; [7],44246.59 ng/mL
same,"daidzein, ng/ml II",[1]; [7],43701.63 ng/mL
same,increase in daidzein levels between Day 7 and Day 21,"[1]; blood serum, BLDG formula",45%
inulin,effect of added inulin on BLDG dosage needed,[3],able to cut his BLDG dosage in half
